# Data published in patent US20230265432A1, “METHODS AND COMPOSITIONS FOR TREATING ACUTE MYELOID LEUKEMIA” (Sanford Burnham Prebys Medical Discovery Institute, priority 2021, published 2023).
# Counter-ions that a name gives are not always drawn. Like-named read-outs stand apart in the source and are kept apart here.
# What was measured:
# [1] = tested on: SK-BR-3 breast-derived cell line; details: proliferation; cited from earlier work
# [2] = tested on: HT29; details: cited from earlier work
# [3] = tested on: U937 leukemia cell line; details: proliferation; cited from earlier work
# [4] = target: SET7/9 (Homo sapiens, UniProt Q8WTS6); details: cited from earlier work
# [5] = target: PARP1 (Homo sapiens, UniProt P09874); details: cited from earlier work
# [6] = target: Aurora A (Homo sapiens, UniProt O14965); details: cited from earlier work
# [7] = tested on: TNF-a; details: control 325 pg/ml, cited from earlier work
# [8] = target: HAT PCAF (p300/CREB-binding protein-associated factor) (Homo sapiens, UniProt Q92831); details: cited from earlier work
# [9] = tested on: RhoA/C-mediated, SRF-driven luciferase expression in PCS prostate cancer cells; details: cited from earlier work
# [10] = target: Aurora B (Homo sapiens, UniProt Q96GD4); details: cited from earlier work
# [11] = target: Aurora C (Homo sapiens, UniProt Q9UQB9); details: cited from earlier work
# [12] = target: hERG ion-channel (Homo sapiens, UniProt Q12809); details: cited from earlier work
# [13] = tested on: U937 cells expressing an inducible shRNF5 vector; assay: Small molecule epigenetic regulator screen; assay type: cell-based; details: 0.5 μM or 5 μM, 6 days, +Dox versus −Dox
# [14] = tested on: U937 cells; assay: Viability/growth of U937 cells (CellTiter Glo); assay type: cell-based; details: RNF5-KD U937, 24 h
# [15] = tested on: HL-60 cells; assay: Viability of HL-60 cells expressing pLKO or shRNF5; details: for IC50: Homo sapiens, HL-60, 48 h
# [16] = target: BRD4 (Homo sapiens, UniProt O60885); details: cited from earlier work
# [17] = tested on: PI3K; details: cited from earlier work
# [18] = tested on: MCF-7 cells; details: cited from earlier work
# [19] = target: nuclear receptor coactivator 3 (Homo sapiens, UniProt Q9Y6Q9); details: cited from earlier work
# [20] = target: PAD1 (Homo sapiens, UniProt Q9ULC6); details: cited from earlier work
# [21] = target: PAD3 (Homo sapiens, UniProt Q9ULW8); details: cited from earlier work
# [22] = tested on: HL-60; details: cytotoxic; cited from earlier work
# [23] = tested on: HDAC1B; details: cited from earlier work
# [24] = tested on: HDAC1A; details: cited from earlier work
# [25] = target: HIF-1alpha prolyl hydroxylase-2 (PHD2) (Homo sapiens, UniProt Q9GZT9); details: cited from earlier work
# [26] = tested on: quinone reductase-1; details: in mouse hepatoma cells; cited from earlier work
# [27] = target: T1, SIRT1 (Homo sapiens, UniProt Q96EB6); details: cited from earlier work
# T1 sequence (Q96EB6 1-747): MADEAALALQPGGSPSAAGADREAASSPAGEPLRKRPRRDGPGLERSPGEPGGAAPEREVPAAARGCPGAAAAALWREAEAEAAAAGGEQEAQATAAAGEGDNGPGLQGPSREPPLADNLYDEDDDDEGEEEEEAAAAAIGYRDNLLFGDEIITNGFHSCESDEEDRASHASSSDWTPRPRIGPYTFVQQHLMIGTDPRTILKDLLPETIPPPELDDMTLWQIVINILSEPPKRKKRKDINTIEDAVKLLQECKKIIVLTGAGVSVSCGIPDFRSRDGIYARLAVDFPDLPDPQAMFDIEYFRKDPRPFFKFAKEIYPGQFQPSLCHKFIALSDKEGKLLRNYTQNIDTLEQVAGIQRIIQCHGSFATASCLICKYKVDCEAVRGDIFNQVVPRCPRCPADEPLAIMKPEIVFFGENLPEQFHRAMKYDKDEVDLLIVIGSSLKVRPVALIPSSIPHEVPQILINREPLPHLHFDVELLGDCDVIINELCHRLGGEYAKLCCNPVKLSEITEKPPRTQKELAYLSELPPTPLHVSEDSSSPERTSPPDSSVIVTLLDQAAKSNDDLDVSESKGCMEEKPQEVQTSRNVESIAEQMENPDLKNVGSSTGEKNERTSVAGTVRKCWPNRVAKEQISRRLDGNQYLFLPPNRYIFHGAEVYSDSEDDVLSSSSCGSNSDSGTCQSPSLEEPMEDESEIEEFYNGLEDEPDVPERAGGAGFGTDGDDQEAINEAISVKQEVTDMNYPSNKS
# [28] = tested on: metastatic breast cancer MDA-MB 231 cell; details: cited from earlier work
# [29] = target: O6-alkylguanine-DNA-alkyltransferase (Homo sapiens, UniProt P16455); details: cited from earlier work
# [30] = tested on: maize HD1-A; details: cited from earlier work
# [31] = target: menin-MLL fusion protein interaction (Homo sapiens, UniProt O00255); details: cited from earlier work
# [32] = target: MLL1 (Homo sapiens, UniProt Q03164); details: cited from earlier work
# [33] = tested on: BRD2, BRD3, and BRD4; details: cited from earlier work
# [34] = tested on: HCT116; details: proliferation; cited from earlier work
# [35] = tested on: Colo205; details: proliferation; cited from earlier work
# [36] = target: DNMT3B (Homo sapiens, UniProt Q9UBC3); details: cited from earlier work
# [37] = target: Flt3 (Homo sapiens, UniProt P36888); details: cited from earlier work
# [38] = target: RET (Homo sapiens, UniProt P07949); details: cited from earlier work
# [39] = tested on: MOLM-13 cells; assay: Viability/growth of MOLM-13 cells (CellTiter Glo); assay type: cell-based; details: RNF5-KD versus control
# [40] = tested on: MOLM-13 cells; assay: Western blot of apoptotic markers; assay type: cell-based; details: RNF5-KD versus control
# Chain of HAT PCAF (p300/CREB-binding protein-associated factor) (Q92831 whole entry): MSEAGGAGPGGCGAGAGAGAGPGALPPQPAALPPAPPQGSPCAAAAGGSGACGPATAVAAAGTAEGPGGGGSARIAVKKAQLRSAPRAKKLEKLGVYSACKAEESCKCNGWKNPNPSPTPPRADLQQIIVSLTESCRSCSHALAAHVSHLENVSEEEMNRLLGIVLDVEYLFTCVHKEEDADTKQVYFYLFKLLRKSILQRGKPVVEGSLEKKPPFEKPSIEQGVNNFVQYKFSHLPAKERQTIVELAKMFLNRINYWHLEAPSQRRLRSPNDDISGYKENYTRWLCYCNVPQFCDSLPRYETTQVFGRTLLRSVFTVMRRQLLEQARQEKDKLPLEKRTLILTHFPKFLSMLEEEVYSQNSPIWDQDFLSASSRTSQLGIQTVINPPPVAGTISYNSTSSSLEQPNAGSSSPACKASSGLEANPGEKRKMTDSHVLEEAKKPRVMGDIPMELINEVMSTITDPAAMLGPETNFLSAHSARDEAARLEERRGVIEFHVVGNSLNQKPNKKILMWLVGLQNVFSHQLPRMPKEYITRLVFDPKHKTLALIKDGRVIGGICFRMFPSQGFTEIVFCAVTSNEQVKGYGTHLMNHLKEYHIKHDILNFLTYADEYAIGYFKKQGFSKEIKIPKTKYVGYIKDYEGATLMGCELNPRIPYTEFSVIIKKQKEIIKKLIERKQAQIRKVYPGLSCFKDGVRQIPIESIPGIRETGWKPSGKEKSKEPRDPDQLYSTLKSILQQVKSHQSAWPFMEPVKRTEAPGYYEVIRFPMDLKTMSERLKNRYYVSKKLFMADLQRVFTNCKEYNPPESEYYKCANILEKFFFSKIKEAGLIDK
# Chain of Aurora A (O14965 whole entry): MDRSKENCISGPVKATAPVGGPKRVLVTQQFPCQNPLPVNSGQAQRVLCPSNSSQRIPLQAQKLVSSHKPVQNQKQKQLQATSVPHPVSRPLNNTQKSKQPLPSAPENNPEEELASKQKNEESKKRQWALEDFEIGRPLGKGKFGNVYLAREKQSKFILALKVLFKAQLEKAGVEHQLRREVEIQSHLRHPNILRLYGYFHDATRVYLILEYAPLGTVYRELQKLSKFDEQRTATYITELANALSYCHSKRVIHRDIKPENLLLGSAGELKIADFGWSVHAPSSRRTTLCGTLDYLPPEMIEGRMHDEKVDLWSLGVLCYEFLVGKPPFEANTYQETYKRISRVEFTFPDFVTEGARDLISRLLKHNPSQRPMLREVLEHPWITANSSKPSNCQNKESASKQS
# Chain of SET7/9 (Q8WTS6 whole entry, species assumed): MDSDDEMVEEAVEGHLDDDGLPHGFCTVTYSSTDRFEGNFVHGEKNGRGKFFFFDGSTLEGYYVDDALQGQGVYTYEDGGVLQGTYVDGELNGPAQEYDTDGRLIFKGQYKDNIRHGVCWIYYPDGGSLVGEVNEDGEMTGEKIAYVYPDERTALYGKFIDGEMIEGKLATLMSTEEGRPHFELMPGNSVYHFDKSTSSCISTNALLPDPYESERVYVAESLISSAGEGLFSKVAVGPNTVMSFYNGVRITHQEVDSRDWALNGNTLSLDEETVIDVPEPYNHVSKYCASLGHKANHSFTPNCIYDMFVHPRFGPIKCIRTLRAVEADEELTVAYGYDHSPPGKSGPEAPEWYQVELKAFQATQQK
# Chain of Aurora B (Q96GD4 whole entry): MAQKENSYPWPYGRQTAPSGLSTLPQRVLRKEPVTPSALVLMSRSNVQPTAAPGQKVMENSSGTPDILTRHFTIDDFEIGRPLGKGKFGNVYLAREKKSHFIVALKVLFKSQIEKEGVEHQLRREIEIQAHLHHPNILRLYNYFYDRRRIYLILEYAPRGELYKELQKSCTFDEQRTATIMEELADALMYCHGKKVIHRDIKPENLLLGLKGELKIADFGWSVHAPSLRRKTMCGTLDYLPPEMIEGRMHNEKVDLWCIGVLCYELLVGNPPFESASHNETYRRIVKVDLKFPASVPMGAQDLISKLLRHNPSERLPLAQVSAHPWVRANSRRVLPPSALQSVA
# Chain of menin-MLL fusion protein interaction (O00255 whole entry, the tested form may be a part): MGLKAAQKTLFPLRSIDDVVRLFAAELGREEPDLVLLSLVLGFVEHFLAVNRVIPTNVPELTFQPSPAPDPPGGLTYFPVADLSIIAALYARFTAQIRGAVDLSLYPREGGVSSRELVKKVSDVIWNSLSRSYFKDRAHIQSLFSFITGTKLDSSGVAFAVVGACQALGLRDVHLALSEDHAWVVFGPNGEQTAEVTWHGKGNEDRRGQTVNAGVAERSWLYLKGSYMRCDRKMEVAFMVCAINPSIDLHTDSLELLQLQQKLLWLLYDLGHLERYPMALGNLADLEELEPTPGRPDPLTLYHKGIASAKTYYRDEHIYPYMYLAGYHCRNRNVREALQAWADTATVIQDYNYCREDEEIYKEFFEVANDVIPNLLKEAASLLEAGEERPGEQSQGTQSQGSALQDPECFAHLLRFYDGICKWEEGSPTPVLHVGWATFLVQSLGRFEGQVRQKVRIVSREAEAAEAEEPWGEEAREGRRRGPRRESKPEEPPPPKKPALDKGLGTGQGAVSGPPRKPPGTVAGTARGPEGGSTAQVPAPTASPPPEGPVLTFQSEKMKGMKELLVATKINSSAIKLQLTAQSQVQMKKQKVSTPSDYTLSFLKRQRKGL
# Chain of Aurora C (Q9UQB9 whole entry): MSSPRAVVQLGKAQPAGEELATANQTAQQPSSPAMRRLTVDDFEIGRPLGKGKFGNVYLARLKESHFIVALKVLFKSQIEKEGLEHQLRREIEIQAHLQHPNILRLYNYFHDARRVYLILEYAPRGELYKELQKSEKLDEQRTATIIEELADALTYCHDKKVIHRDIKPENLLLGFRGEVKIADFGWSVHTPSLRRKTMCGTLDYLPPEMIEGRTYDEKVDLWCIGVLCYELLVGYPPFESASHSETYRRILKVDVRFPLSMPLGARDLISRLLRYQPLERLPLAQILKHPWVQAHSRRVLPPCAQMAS
# Chain of HIF-1alpha prolyl hydroxylase-2 (PHD2) (Q9GZT9 whole entry, species assumed): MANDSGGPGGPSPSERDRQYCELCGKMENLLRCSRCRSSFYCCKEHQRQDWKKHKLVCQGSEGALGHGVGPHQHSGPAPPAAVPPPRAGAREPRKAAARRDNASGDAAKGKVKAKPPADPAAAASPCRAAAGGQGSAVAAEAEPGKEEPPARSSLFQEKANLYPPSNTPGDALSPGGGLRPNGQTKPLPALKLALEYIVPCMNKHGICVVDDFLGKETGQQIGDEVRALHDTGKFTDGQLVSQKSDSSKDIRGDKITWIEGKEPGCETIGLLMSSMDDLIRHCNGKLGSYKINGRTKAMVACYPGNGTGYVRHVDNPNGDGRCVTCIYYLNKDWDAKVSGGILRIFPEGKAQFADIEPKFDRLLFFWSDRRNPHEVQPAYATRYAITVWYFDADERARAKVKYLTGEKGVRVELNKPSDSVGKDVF
# Chain of PARP1 (P09874 whole entry, species assumed): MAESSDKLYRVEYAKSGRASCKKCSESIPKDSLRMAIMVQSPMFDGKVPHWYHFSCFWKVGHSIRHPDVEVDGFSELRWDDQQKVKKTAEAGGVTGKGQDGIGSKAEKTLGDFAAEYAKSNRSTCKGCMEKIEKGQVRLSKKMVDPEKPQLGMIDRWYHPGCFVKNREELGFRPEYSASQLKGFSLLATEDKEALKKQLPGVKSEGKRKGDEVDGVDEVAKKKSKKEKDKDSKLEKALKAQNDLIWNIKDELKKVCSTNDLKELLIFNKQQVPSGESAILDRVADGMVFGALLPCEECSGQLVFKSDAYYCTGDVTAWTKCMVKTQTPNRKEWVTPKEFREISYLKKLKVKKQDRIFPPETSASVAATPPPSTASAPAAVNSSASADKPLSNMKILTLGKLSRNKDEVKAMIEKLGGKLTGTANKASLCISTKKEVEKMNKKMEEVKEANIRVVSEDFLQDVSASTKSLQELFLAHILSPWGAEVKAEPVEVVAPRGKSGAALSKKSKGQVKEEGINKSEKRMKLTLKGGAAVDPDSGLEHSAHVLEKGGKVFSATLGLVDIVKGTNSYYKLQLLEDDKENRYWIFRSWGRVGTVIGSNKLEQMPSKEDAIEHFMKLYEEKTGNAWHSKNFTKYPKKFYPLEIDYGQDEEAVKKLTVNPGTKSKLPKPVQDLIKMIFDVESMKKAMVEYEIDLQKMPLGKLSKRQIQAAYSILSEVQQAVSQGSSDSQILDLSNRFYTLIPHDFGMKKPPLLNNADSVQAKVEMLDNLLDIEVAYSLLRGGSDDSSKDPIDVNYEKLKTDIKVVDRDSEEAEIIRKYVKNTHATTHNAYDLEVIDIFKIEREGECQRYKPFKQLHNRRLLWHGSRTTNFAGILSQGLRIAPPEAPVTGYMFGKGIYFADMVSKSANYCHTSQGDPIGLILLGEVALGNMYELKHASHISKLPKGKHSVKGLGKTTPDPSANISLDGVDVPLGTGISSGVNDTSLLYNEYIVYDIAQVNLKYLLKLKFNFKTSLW
# Chain of PAD1 (Q9ULC6 whole entry, species assumed): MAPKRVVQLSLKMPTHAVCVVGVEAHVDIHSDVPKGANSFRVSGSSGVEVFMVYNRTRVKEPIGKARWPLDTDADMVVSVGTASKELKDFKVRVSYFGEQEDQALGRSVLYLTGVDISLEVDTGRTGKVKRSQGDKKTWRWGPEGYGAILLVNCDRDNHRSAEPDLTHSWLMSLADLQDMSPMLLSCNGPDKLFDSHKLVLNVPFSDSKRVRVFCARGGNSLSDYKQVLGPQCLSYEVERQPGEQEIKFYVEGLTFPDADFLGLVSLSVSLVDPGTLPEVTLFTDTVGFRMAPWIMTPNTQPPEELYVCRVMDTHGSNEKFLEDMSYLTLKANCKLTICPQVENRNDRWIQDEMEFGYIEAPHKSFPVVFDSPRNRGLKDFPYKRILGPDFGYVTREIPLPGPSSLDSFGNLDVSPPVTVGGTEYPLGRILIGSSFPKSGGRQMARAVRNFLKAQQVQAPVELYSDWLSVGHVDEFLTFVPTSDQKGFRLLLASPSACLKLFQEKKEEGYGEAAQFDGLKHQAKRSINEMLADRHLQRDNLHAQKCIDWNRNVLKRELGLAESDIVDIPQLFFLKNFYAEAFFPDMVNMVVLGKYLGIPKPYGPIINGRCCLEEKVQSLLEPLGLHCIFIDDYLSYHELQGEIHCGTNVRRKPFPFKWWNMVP
molecule,measurement,setting,value
O=C(CCCCCCC(=O)Nc1ccc(I)cc1)NO [4-iodo-SAHA],EC50,[1],1.1 µM
same,EC50,[2]; proliferation,0.95 µM
same,EC50,[3],0.12 µM
Cl.O=C([C@@H](Cc1cccc(C(F)(F)F)c1)NS(=O)(=O)c1cc(F)c2c(c1)CCNC2)N1CCCC1 [(R)-PFI-2 (hydrochloride)],IC50,[4],0.002 µM
same,fold selectivity over a panel of 18 other methyltransferases,[4],"nM) that demonstrates greater than 1,000-fold selectivity"
CN(C)Cc1ccc(-c2nc3cccc4c3n2CCNC4=O)cc1 [AG-14361],Ki,[5],< 0.005 µM
same,fold more potent than the benzamides,[5],is at least 1000-fold more potent than the benzamides.
CCN1CCN(C(=O)Cc2ccc(Nc3ncc(F)c(Nc4ccc(C(=O)Nc5ccccc5Cl)cc4)n3)cc2)CC1 [Aurora A Inhibitor I],IC50,[6],0.0034 µM
same,fold selectivity for Aurora A than Aurora B,[6],1000 fold
COCCCn1c(N)c(C(=O)NC2CCCC2)c2nc3ccccc3nc21 [CAY10591],TNF-a levels,[7]; at 20 μM,104 pg/mL
same,TNF-a levels,[7]; at 60 μM,53 pg/mL
CCCCCOc1ccc(/C=C\c2cccc(O)c2C(=O)O)cc1 [CAY10669],IC50,[8],662 µM
same,fold improvement in inhibitory potency over anacardic acid,[8],2 fold
O=C(Nc1ccc(Cl)cc1)C1CCCN(C(=O)c2cc(C(F)(F)F)cc(C(F)(F)F)c2)C1 (stereo not shown) [CCG-100602],IC50,[9],9.8 µM
Cc1cc(CN2CCN(c3c(Br)cnc4nc(-c5ccc(N6CCN(C)CC6)cc5)[nH]c34)CC2)no1 [CCT137690],IC50,[10],0.025 µM
same,IC50,[11],0.019 µM
same,effect on hERG ion-channel,[12],nM. It has little effect on hERG ion-channel.
"CC(=O)Nc1ccc(C(=O)Nc2ccccc2N)cc1 [CI-994, N-acetyldinaline]",viability of shRNF5-expressing cells relative to control WT RNF5 cells,[13],decreased viability of shRNF5-expressing cells
same,IC50 for CI-994 in terms of cell viability relative to control cells,[14],lower IC50
same,IC50 for CI-994 in terms of cell viability relative to control cells,"[15]; RNF5-KD HL-60, 24 h",lower IC50
Cc1sc2c(c1C)C(c1ccc(Cl)cc1)=N[C@@H](CC(N)=O)c1nnc(C)n1-2 [CPI-203],IC50,[16],0.037 µM
COc1ccc(-c2nc(N3CCOCC3)c3sc(CN(C)c4ncc(C(=O)NO)cn4)cc3n2)cn1 [CUDC-907],IC50,[17],0.019 µM
COc1cc([C@@H]2c3cc4c(cc3[C@@H](O[C@@H]3O[C@@H]5CO[C@@H](C)O[C@H]5[C@H](O)[C@H]3O)[C@H]3COC(=O)[C@H]23)OCO4)cc(OC)c1O [Etoposide],IC50,[18]; cell-based cytotoxicity assay,0.00514 µM
same,IC50,[19],2.48 µM
"NC(=O)[C@H](CCCN=C(N)CF)NC(=O)c1ccccc1 [F-Amidine (trifluoroacetate salt), F-Amidine]",IC50,[18],0.5 µM
same,IC50,[2]; cytotoxic,1 µM
same,IC50,[20],29.5 µM
same,IC50,[21],350 µM
same,IC50,[22],0.5 µM
"CCN(CC)Cc1ccc2cc(COC(=O)Nc3ccc(C(=O)NO)cc3)ccc2c1 [Givinostat (ITF2357), Givinostat]",IC50,[23],0.0075 µM
same,IC50,[24],0.016 µM
O=C(O)CNC(=O)c1c(O)c2ccccc2n(Cc2ccccc2)c1=O [IOX2],IC50,[25],0.021 µM
same,"fold selectivity over JMJD2A, JMJD2C, JMJD2E, JMJD3, or FIH",[25],> 100 fold
O=C(/C=C/c1ccc(O)cc1)c1ccc(O)cc1O [Isoliquiritigenin],concentration required to double activity,[26],1.8 μM in mouse hepatoma cells.
O=C(NCc1ccccc1)c1c(/N=C/c2c(O)ccc3ccccc23)sc2c1CCCC2 [JGB1741],IC50,[27],15 µM
same,IC50,[28],0.512 µM
Nc1nc(OCc2cc(Br)cs2)c2[nH]cnc2n1 [Lomeguatrib],IC50,[29],0.005 µM
Cn1cc(/C=C/C(=O)c2cccc(F)c2)cc1/C=C/C(=O)NO [MC1568],IC50,[30],0.1 µM
same,fold more selective for HD1-A than HD1-B,[30],34 fold
CC(C)c1cc2c(N3CCN(C4=NCC(C)(C)S4)CC3)ncnc2s1 [MI-3 (Menin-MLL Inhibitor)],IC50,[31],0.648 µM
CCc1cc2c(N3CCN(c4nncs4)CC3)ncnc2s1 [MI-nc (hydrochloride)],IC50,[31],193 µM
CCC(CC)(NC(=O)C(C)C)C(=O)N[C@@H](CCCN=C(N)N)C(=O)NC1(C(=O)NC(c2ccc(F)cc2)c2ccc(F)cc2)CCCC1 [MM-102],IC50,[32],0.4 µM
Cc1sc2c(c1C)C(c1ccc(Cl)cc1)=N[C@@H](CC(=O)Nc1ccc(O)cc1)c1nnc(C)n1-2 [OTX015],EC50,[33],0.01 to 0.019 µM
Cc1cc(Nc2nn(-c3ccccc3)c(=O)c3ccccc23)n[nH]1 [Phthalazinone pyrazole],IC50,[18],1.6 µM
same,IC50,[34],7.8 µM
same,IC50,[35],2.9 µM
O=c1c(O)c(-c2ccc(O)c(O)c2)oc2cc(O)cc(O)c12 [Quercetin],IC50,[17],2.4 to 5.4 µM
Cc1cc(Nc2ccc(NC(=O)c3ccc(Nc4ccnc5ccccc45)cc3)cc2)nc(N)n1 [SGI-1027],IC50,[36],7.5 µM
CCS(=O)(=O)c1cccc(-c2cc(C(=O)NC3CCN(C)CC3)c(C)c3[nH]c4ncc(C)cc4c23)c1 [TAK-901],IC50,[10],0.015 µM
Cc1cnc(Nc2ccc(N3CCN(C)CC3)cc2)nc1Nc1cccc(S(=O)(=O)NC(C)(C)C)c1 [TG101209],IC50,[37],0.025 µM
same,IC50,[38],0.017 µM
C/C=C(/C)C(=O)O[C@H]1C(C)=C2[C@H]([C@@H]1OC(=O)CCCCCCC)[C@@](C)(OC(C)=O)C[C@H](OC(=O)CCC)[C@@]1(O)[C@H]2OC(=O)[C@@]1(C)O [Thapsigargin],viability,[39]; thapsigargin 100 nM,decreased viability of MOLM-13 RNF5-KD cells to a greater extent
same,apoptotic markers,[40]; thapsigargin 1 μM,increased apoptotic markers to levels higher than those seen in control cells
CC(C)C[C@H](NC(=O)[C@H](Cc1ccccc1)NC(=O)c1cnccn1)B(O)O [bortezomib],viability,[39]; BTZ 5 nM,decreased viability
same,"apoptotic markers (cleaved caspase-3, PARP)",[40]; BTZ 5 nM,increased levels of apoptotic markers
same,IC50,"[15]; read-out: BTZ IC50, RNF5-KD cells (shRNF5), 48 h",0.0054 µM
same,IC50,"[15]; read-out: BTZ IC50, controls (pLKO), 48 h",0.0096 µM
SNS-314 Mesylate,IC50,[11],0.003 µM
